Measured values: publication PMC5506877 (Heliyon, 2017)
Several values for one entry are separate records, joined by “and”; a condition that tells them apart may be missing. Identical values can stand only once. Each block holds one molecule with its values, some of them ahead of it.

Key:
[1] = human ADME study: metabolite profiling in plasma, urine and faeces after single oral [14C]alectinib; format: in vivo
Protocol: Human plasma for protein binding was obtained from three healthy male volunteers. All participants provided written informed consent prior to study related procedures. The protocol of human ADME study was approved by the Independent Ethics Committee of the Stichting Beoordeling Ethiek Bio-Medisch Onderzoek (Assen, The Netherlands), and that of protein binding study was approved by Chugai IRB.
Plasma samples were pooled at 4 h and 6 h (4 h + 6 h), and 8 h and 12 h (8 h +12 h) across the six subjects. An 18-mL aliquot of pooled plasma was extracted with the same volume of acetonitrile twice, and then the extract was lyophilized. The resulting residue was further extracted with 3 mL of acetonitrile/water (9:1, v/v) twice and lyophilized again. The resulting residue was reconstituted with 900 μL of methanol/water (7:3, v/v) to obtain the supernatant as an HPLC sample in which plasma was 20-fold concentrated.
Urine samples were pooled at 0–24 h, and at 24–72 h across the six subjects. A 16-mL aliquot of pooled urine was concentrated 20-fold using the same process for plasma.
Faecal samples were pooled at 0–48 h, 48–96 h, and 96–168 h across the six subjects. One to two weight equivalents of water was added to the faecal samples and the samples were homogenized and mixed with the same volume of acetonitrile. After following the same procedure as for plasma, the residue was reconstituted with methanol/water (7:3, v/v) or dimethyl sulfoxide (DMSO) and centrifuged, and the faecal sample was concentrated 5-fold for use in analysis.
Alkaline Conditions: For metabolite profiling, the extracted samples from plasma, urine, and faeces were subjected to HPLC under alkaline conditions using XBridge™ Shield RP18, 3.5 μm, 4.6 × 150 mm (Waters), and a linear stepwise gradient with solvent A (consisting of water/30%trimethylamine at 100:0.1, v/v) and solvent B (consisting of acetonitrile/30%trimethylamine at 100:0.1, v/v), and a flow rate of 1 mL/min. Solvent B in the gradient started at 1% and then changed as follows: 30% (2 min), 60% (29 min), 98% (29.1 min), 98% (32 min), 1% (32.1 min), and 1% (40 min). The UV wavelength was set at 335 nm. […]
Plasma and Urine: To profile metabolites, 150 μL of the same HPLC sample of plasma or 100 μL of the same HPLC sample of urine was injected 3 separate time, and the eluates collected at 15-second intervals were combined to be measured by a liquid scintillation counter (LSC) (Tri-Carb 3100TR, PerkinElmer, Inc.) at a low level count mode for 10 min.
Faeces: A radiodetector (Radiomatic 625TR, PerkinElmer, Inc.) was used, and the area percentage of each radioactive peak on the radiochromatograms was calculated with analysis software (FLO-ONE Ver. 3.65, PerkinElmer, Inc.). […]

ALK = ALK (Homo sapiens, UniProt Q9UM73); assay: inhibitory activity against ALK, cell-free TR-FRET kinase assay; format: biochemical; conditions: 90 min at 30 °C, geometric mean of triplicates
Chain of ALK (Q9UM73 19-1620): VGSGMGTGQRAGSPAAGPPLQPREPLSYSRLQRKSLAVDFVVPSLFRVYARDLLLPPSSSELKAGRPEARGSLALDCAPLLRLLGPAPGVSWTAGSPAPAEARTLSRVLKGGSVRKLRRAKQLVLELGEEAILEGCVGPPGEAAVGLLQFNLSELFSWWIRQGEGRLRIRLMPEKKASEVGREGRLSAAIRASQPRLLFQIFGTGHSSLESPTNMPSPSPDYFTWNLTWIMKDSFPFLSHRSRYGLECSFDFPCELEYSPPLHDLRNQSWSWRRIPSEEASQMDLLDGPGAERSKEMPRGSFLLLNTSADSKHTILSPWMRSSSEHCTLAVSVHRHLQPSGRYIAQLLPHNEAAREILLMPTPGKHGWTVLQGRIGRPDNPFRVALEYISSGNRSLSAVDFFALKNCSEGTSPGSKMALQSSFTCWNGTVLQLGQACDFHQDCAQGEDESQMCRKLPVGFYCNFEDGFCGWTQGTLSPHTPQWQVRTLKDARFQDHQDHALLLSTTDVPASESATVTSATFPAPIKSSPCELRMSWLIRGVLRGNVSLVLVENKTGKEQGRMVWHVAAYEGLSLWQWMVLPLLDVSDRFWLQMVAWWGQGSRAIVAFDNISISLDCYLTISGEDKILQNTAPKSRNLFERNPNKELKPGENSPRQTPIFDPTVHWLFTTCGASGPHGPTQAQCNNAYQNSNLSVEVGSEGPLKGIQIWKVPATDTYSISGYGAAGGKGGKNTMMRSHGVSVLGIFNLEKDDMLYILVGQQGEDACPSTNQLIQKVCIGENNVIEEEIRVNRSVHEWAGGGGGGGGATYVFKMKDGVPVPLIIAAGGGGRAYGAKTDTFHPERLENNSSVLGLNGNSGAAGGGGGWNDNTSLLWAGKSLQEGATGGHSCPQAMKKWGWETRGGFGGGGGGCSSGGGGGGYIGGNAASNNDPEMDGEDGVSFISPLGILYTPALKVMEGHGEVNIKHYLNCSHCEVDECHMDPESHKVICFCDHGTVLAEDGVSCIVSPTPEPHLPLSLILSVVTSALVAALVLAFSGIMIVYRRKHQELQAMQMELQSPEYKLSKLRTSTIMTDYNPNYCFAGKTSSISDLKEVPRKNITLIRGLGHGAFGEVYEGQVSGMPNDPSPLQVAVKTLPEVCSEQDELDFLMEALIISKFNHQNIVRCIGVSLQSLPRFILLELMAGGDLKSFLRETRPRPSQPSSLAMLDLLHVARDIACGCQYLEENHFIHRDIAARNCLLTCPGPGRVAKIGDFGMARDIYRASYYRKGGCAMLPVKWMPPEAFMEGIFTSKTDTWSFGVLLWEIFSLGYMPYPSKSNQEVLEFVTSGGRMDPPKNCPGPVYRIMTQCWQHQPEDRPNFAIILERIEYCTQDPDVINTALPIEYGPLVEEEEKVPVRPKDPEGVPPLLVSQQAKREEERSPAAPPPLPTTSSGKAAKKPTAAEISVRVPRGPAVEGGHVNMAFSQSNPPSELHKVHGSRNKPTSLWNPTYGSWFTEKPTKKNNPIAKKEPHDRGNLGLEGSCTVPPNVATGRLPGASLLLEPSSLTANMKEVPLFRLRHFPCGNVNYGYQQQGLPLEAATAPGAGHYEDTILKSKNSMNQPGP
Protocol: Solutions of test articles, substrate/ATP (2 μmol/L substrate peptide-0.2 mol/L HEPES buffer containing 60 μmol/L ATP, 20 mmol/L MgCl2, 0.2 mmol/L DTT, and 40 μmol/L Na3VO4) and the enzyme (final concentration of 200 ng/mL) were mixed in a clear-bottomed 384-well black plate and incubated for 90 min at 30 °C. After adding stop solution (100 mmol/L EDTA-0.1 mol/L HEPES buffer), TR-FRET reagent (2.5 nmol/L of LANCE® Eu-W1024-labeled anti-phosphotyrosine (PT66) and 6.25 μg/mL of Streptavidine SureLight® APC) was added and the time-resolved fluorescence was measured by EnVision HTS (Model 2104, PerkinElmer).

[2] = tested on: NCI-H2228 NSCLC cell line that harbours EML4-ALK fusion; assay: cell growth inhibition, CellTiter-Glo, NCI-H2228 spheroid culture; format: cell-based; conditions: for IC50: Homo sapiens
Protocol: Then test article solutions were added and the cell viability was measured after a 120-h incubation in a CO2 incubator. The luminescence was measured by EnVision HTS and the cell viability was calculated.

[3] = plasma protein binding by equilibrium dialysis; format: in vitro ADME, human; conditions: for recovery at 24 h: pooled human plasma dialysed against PBS, human plasma / PBS after dialysis, read-out: recovery in the plasma protein binding (equilibrium dialysis) experiment
Protocol: Plasma was obtained by centrifugation (4 °C, 1600 g, 10 min, CF7D2, Hitachi Koki) of EDTA‐treated blood from three healthy male volunteers and was then pooled. […] Samples for M4 were mixed with deuterated M4 as an internal standard and acetonitrile/methanol (1:1, v/v). After centrifugation, the supernatant was injected into an LC/ESI-MS/MS system consisting of ACQUITY Ultra Performance LC (Waters) and API 4000 (AB Sciex) in positive-ion multiple-reaction monitoring (MRM) mode to measure M4 (Q1: m/z 457 and Q3: m/z 396) concentration. Chromatography was performed using ACQUITY UPLC BEH Phenyl (2.1 mm I.D. × 50 mm, 1.7 μm, Waters) at 60 °C; MP A: water/98% formic acid (1000/1, v/v), MP B: methanol/98% formic acid (1000/1, v/v), with a flow rate of 0.7 mL/min and a gradient program as follows: (time, % MP B): 0 min, 40%; 0.3 min, 40%; 1.9 min, 45%; 1.91 min, 90%; 2.20 min, 90%; 2.21 min, 40%; 2.70 min, stop. For the protein binding of M4, 1–5000 ng/mL in human plasma, and 0.5–2500 ng/mL in PBS were calibrated.
The recovery was calculated by the following equation.
Protein binding was calculated by the following equation.
Protein binding = (1−Cf/Cp) × 100 (%)
Where Cf and Cp represent the concentration in PBS and in plasma, respectively.

[4] = cited from earlier work
[5] = at pH 3.575; cited from earlier work
[6] = NCI-H2228 cells, 120-h incubation, geometric mean of triplicates
[7] = male, human, plasma, human plasma, 37 °C 24 h dialysis, mean ± SD of triplicates
[8] = human, single oral 600 mg/67 μCi [14C]alectinib, pooled across n = 6, ND: Not detected

ratio of M1a peak to M1b peak, radiochromatogram ([1]; human faeces 48–96 h, fractionated M1, acidic HPLC conditions, radioactivity): 1 to 9 and 1/9
ratio of M1a to M1b, extracted ion chromatogram (XIC) ([1]; human faeces 48–96 h, fractionated M1, acidic conditions, [M + H]+): 1 to 3 and 1/3
ratio of M1a to M1b in the XIC, plasma ([1]; human plasma, LC-MS acidic conditions): 1/8
ratio of M1a to M1b in the XIC, urine ([1]; human urine, LC-MS acidic conditions): 1/10
SMILES: CCc1cc2c(cc1N1CCC(NCCOCC(=O)O)CC1)C(C)(C)c1[nH]c3cc(C#N)ccc3c1C2=O [M1a]

IC50 (ALK): 1.6 nM
IC50 [2, 6]: 320 nM
IC50 Cell growth [2, 6]: much weaker effect
fold shift in IC50 from the ALK enzyme inhibition assay to the cell growth inhibition assay ([2]; cell medium contained 10% FBS): ~200 fold
SMILES: CCc1cc2c(cc1N1CCC(N(CCO)CC(=O)O)CC1)C(C)(C)c1[nH]c3cc(C#N)ccc3c1C2=O [M1b]

fraction unbound at 24 h, 0.3 μg/mL ([3]; male, human, plasma, human plasma, 0.3 μg/mL, 37 °C 24 h dialysis, mean ± SD of triplicates): 0.009
fraction unbound at 24 h, 1 μg/mL [3, 7]: 0.005
fraction unbound at 24 h, 2 μg/mL ([3]; male, human, plasma, human plasma, 2 μg/mL, 37 °C 24 h dialysis, mean ± SD of triplicates): 0.005
fraction unbound at 24 h ([3]; male, human, plasma, human plasma, all concentrations investigated, read-out: human plasma protein binding over the range of concentration investigated): < 0.01
recovery at 24 h ([3]; male): 82.7 ± 2.5%
IC50 (ALK): 1.2 nM
IC50 [2, 6]: 37 nM
SMILES: CCc1cc2c(cc1N1CCC(NCCO)CC1)C(C)(C)c1[nH]c3cc(C#N)ccc3c1C2=O [M4, 9-ethyl-8-[4-(2-hydroxyethylamino)-1-piperidyl]-6,6-dimethyl-11-oxo-5H-benzo[b]carbazole-3-carbonitrile]
AUC ratio for the percentage of total drug-related systemic exposure ([4]; human plasma, LC/MS drug concentration vs total radioactivity): 15%
amount of metabolite in faecal samples, % of the dose administered ([4]; human, faeces, single oral [14C]alectinib): 5.8%
Percentage of drug related compound in analytical sample, Faeces 0–48 h [4, 8]: 1.1%
Percentage of drug related compound in analytical sample, Faeces 48–96 h [4, 8]: 11.0%
Percentage of drug related compound in analytical sample, Faeces 96–168 h [4, 8]: 37.3%
Percentage of drug related compound in analytical sample, Plasma 4 h + 6 h [4, 8]: 7.0%
Percentage of drug related compound in analytical sample, Plasma 8 h + 12 h [4, 8]: 9.9%
Percentage of drug related compound in analytical sample, Urine 0–24 h [4, 8]: 9.0%
Percentage of drug related compound in analytical sample, Urine 24–72 h [4, 8]: 24.2%

SMILES: CCc1cc2c(cc1N1CCC(N)CC1)C(C)(C)c1[nH]c3cc(C#N)ccc3c1C2=O [M6, 8-(4-amino-1-piperidyl)-9-ethyl-6,6-dimethyl-11-oxo-5H-benzo[b]carbazole-3-carbonitrile]
Percentage of drug related compound in analytical sample, Faeces 96–168 h [4, 8]: 5.6%

human plasma protein binding over the range of concentration investigated ([3]; human plasma, all concentrations investigated): higher than 99%
fraction unbound at 24 h, 0.1 μg/mL ([3]; male, human, plasma, human plasma, 0.1 μg/mL, 37 °C 24 h dialysis, mean ± SD of triplicates): 0.004
fraction unbound at 24 h, 1 μg/mL [3, 7]: 0.003
fraction unbound at 24 h, 10 μg/mL ([3]; male, human, plasma, human plasma, 10 μg/mL, 37 °C 24 h dialysis, mean ± SD of triplicates): 0.003
recovery at 24 h ([3]; male): 85 ± 1.7%
SMILES: CCc1cc2c(cc1N1CCC(N3CCOCC3)CC1)C(C)(C)c1[nH]c3cc(C#N)ccc3c1C2=O [Alectinib, 9-ethyl-6,6-dimethyl-8-(4-morpholino-1-piperidyl)-11-oxo-5H-benzo[b]carbazole-3-carbonitrile, reference compound]
Cmax in plasma ([4]; human ADME study, 600 mg oral [14C]alectinib): 175 ng/mL
recovery of radioactivity within excretion in faeces ([4]; human, up to 168 h post-dose, % of dose administered): 97.8%
recovery of radioactivity within excretion in urine ([4]; human, up to 168 h post-dose): 0.5%
logD [5]: 1.96
